{
  "source": "patent US6960343B2",
  "about": "“Toll/interleukin-1 receptor adapter protein (TIRAP)” (Yale University School of Medicine, priority 2001, dated 2005)",
  "key": {"IL-6": {"tested_on": "IL-6", "assay": "IL-6 production by dendritic cells", "type": "cell-based, mice", "details": "DCs", "experimental": "(§1) (A) Wild-type and MyD88^−/− dendritic cells (DCs) were induced with LPS or CpG and analyzed for expression of the costimulatory molecules B7.1 and […] flow cytometry. (B) Production of the cytokines, IL-12 and IL-6, was measured in cells that were untreated (none) or treated with LPS or CpG in the presence or absence of TIRAP peptide. (C) T cell proliferation was measured in wild-type DCs that were untreated (none), treated with LPS alone (LPS), or treated with LPS in the presence of increasing amounts of TIRAP peptide (LPS+TIRAP peptide). T cell proliferation was measured by incorporation of ^3H-thymidine into cells, expressed as cpm×10^3.\n(§2) To determine the effects of the TIRAP peptide on cytokine production, DCs were treated with or without TIRAP peptide prior to stimulation with LPS or CpG (as described above), and the production of IL-12 and IL-6 was measured. Addition of TIRAP peptide inhibited production of IL-12 and IL-6 cytokines in response to stimulation with LPS, but not CpG (FIG. 6B)."}, "PKR": {"tested_on": "PKR", "assay": "PKR phosphorylation in RAW cells, immunoblot", "type": "cell-based", "details": "40 μM peptide", "experimental": "(§3) FIG. 5, comprising FIGS. 5A through 5D, is a series of blots depicting inhibition of LPS- but not CpG-induced NF-κB activation, PKR phosphorylation, and JNK phosphorylation by TIRAP. (A) TIRAP peptide, but not a reverse sequence peptide, inhibited LPS-induced NF-κB activation. RAW κB cells pretreated for 1 h with either the TIRAP or control peptide were stimulated with LPS (10 ng/ml) for 5 h. Samples were stimulated in duplicate. (B) Pretreatment of RAW cells with TIRAP peptide blocks LPS-induced IκB-α degradation. RAW cells pretreated with the TIRAP peptide as indicated were either left unstimulated or stimulated with LPS (10 ng/ml) for the indicated time periods. […] Lysates (30 μg/sample) were analyzed by SDS-PAGE followed by immunoblotting with antibodies that specifically recognize phosphorylated PKR or phosphorylated JNK.\n(§4) To determine whether a TIRAP mutant peptide inhibits PKR and JNK phosphorylation induced by LPS or CpG, RAW cells either untreated or pretreated with 40 μM of the TIRAP peptide were either left unstimulated or stimulated with either LPS (10 ng/ml) or CpG (10 μM) for the indicated time periods before harvest and lysis. Lysates (30 μg/sample) were analyzed by SDS-PAGE followed by immunoblotting with antibodies that specifically recognize phosphorylated PKR and JNK."}, "[1]": {"tested_on": "1H3.1 TCR transgenic T cells", "assay": "CD4 T cell proliferation stimulated by DCs, 3H-thymidine incorporation", "type": "cell-based", "details": "DCs from wild-type or MyD88-deficient mice, LPS, Eα peptide, 48 h culture", "experimental": "as §1\nLastly, the effect of TIRAP peptide on T cell proliferation was evaluated. Stimulation of CD4 T cell proliferation by DCs treated with or without TIRAP peptide prior to stimulation with LPS was performed in the presence of varying concentrations of Eα peptide. DCs were fixed prior to incubation with 1H3.1 TCR transgenic T cells (specific for Eα peptide bound to I-A). Proliferation was measured by ^3H-thymidine incorporation for the last 24 h of a 48 h culture."}, "JNK": {"tested_on": "JNK", "assay": "JNK phosphorylation in RAW cells, immunoblot", "type": "cell-based", "details": "40 μM peptide", "experimental": "as §3, §4"}, "IL-12": {"tested_on": "IL-12", "assay": "IL-12 production by dendritic cells", "type": "cell-based, mice", "details": "DCs", "experimental": "as §1, §2"}, "dendritic cells (DCs)": {"tested_on": "dendritic cells (DCs)", "assay": "Dendritic cell maturation, flow cytometry of costimulatory molecules B7.1 and B7.2", "type": "cell-based, mice", "details": "peptide 10 μM", "experimental": "as §1\nIn view of the important role for TIRAP in mediating LPS-responsiveness in macrophages, the role of TIRAP in LPS-induced DC maturation was investigated. TIRAP is likely to be critical in these events because MyD88-deficient DCs retain the ability to upregulate costimulatory molecules in response to LPS stimulation (Kaisho 2001). To determine the effect of TIRAP on the expression of the costimulatory molecules B7.1 and B7.2, flow cytometry was performed on wild type and MyD88-/-DC. DCs were either unstimulated (shaded), stimulated with LPS (10 ng/ml) or CpG (10 μM) (black line), or pretreated with TIRAP peptide (10 μM) prior to stimulation with LPS or CpG (dashed line). […]"}, "NF-κB": {"tested_on": "NF-κB", "assay": "NF-κB-dependent luciferase reporter assay in RAW κB macrophage cell line", "type": "cell-based", "details": "RAW κB cells", "experimental": "(§5) FIG. 5, comprising FIGS. 5A through 5D, is a series of blots depicting inhibition of LPS- but not CpG-induced NF-κB activation, PKR phosphorylation, and JNK phosphorylation by TIRAP. (A) TIRAP peptide, but not a reverse sequence peptide, inhibited LPS-induced NF-κB activation. RAW κB cells pretreated for 1 h with either the TIRAP or control peptide were stimulated with LPS (10 ng/ml) for 5 h. Samples were stimulated in duplicate. (B) Pretreatment of RAW cells with TIRAP peptide blocks LPS-induced IκB-α degradation. RAW cells pretreated with the TIRAP peptide as indicated were either left unstimulated or stimulated with LPS (10 ng/ml) for the indicated time periods. Lysates (30 μg/sample) were resolved by SDS-PAGE followed by immunoblotting with an anti-IκB-α antibody to assess IκB-α degradation. (C) TIRAP peptide inhibited LPS- but not CpG-induced NF-κB activity. RAW κB cells pretreated with the TIRAP peptide as indicated were stimulated with either LPS or CpG and harvested for reporter assay. (D) TIRAP peptide inhibited PKR and JNK phosphorylation induced by LPS but not CpG. RAW cells either untreated or pretreated with 40 μM of the TIRAP peptide were stimulated with either LPS or CpG as indicated. Lysates (30 μg/sample) were analyzed by SDS-PAGE followed by immunoblotting with antibodies that specifically recognize phosphorylated PKR or phosphorylated JNK. […]"}, "IκB-α": {"tested_on": "IκB-α", "assay": "IκB-α degradation in RAW cells, immunoblot", "type": "cell-based", "experimental": "as §5"}},
  "data": [
    {"substance": "TIRAP peptide: synthetic peptide corresponding to the P125 region of mTIRAP linked to the C-terminus of a peptide derived from antennapedia (RQIKIWFQNRRMKWKKLQLRDAAPGGAIVS; TIRAP/Antennapedia fusion protein)", "values": [
      {"measurement": "production of IL-6 in response to CpG", "setting": "IL-6; peptide before CpG stimulation", "result": "not CpG"},
      {"measurement": "production of IL-6 in response to LPS", "setting": "IL-6; peptide before LPS stimulation", "result": "inhibited"},
      {"measurement": "inhibition of PKR phosphorylation induced by CpG", "setting": "PKR; CpG 10 μM", "result": "not CpG"},
      {"measurement": "inhibition of PKR phosphorylation induced by LPS", "setting": "PKR; LPS 10 ng/ml", "result": "inhibited"},
      {"measurement": "T cell proliferation induced by peptide-treated DCs", "setting": "[1]", "result": "unable to induce T cell proliferation"},
      {"measurement": "inhibition of JNK phosphorylation induced by CpG", "setting": "JNK; CpG", "result": "not CpG"},
      {"measurement": "inhibition of JNK phosphorylation induced by LPS", "setting": "JNK; LPS", "result": "inhibited"},
      {"measurement": "production of IL-12 in response to CpG", "setting": "IL-12; peptide before CpG stimulation", "result": "not CpG"},
      {"measurement": "production of IL-12 in response to LPS", "setting": "IL-12; peptide before LPS stimulation", "result": "inhibited"},
      {"measurement": "CpG-induced DC maturation", "setting": "dendritic cells (DCs); DCs, CpG 10 μM", "result": "no effect"},
      {"measurement": "LPS-induced upregulation of B7.1 and B7.2 molecules", "setting": "dendritic cells (DCs); wild-type and MyD88-deficient DCs, LPS 10 ng/ml", "result": "abolished"},
      {"measurement": "inhibition of LPS-induced NF-κB activation", "setting": "NF-κB; 1 hour pretreatment, LPS 10 ng/ml 5 hours, TIRAP peptide 50 μM", "result": "potently inhibited"},
      {"measurement": "inhibition of CpG-induced NF-κB activation", "setting": "NF-κB; CpG 10 μM 5 hours", "result": "did not inhibit"},
      {"measurement": "LPS-induced IκB-α degradation", "setting": "IκB-α; 1 hour pretreatment with 40 μM peptide, LPS 10 ng/ml", "result": "did not induce IκB-α degradation"},
      {"measurement": "inhibition of CpG-induced IκB-α degradation", "setting": "IκB-α; CpG", "result": "did not inhibit"}
    ]}
  ]
}
